Drawing on patent publication US7893066B2, “Pyridol[2,3-B]pyrazinones for use as stearoyl CoA desaturase inhibitors” (Gilead Palo Alto, Inc., priority 2006, dated 2011), this text covers IC50 for 13 compounds.

For the experiment, the target named is T1, stearoyl-CoA desaturase (SCD) (Rattus norvegicus, UniProt P07308).
T1 construct: from tissue; host or cells: liver microsomes of male Sprague Dawley rats, with SCD induced by a carbohydrate-rich diet
T1 sequence (P07308 1-358): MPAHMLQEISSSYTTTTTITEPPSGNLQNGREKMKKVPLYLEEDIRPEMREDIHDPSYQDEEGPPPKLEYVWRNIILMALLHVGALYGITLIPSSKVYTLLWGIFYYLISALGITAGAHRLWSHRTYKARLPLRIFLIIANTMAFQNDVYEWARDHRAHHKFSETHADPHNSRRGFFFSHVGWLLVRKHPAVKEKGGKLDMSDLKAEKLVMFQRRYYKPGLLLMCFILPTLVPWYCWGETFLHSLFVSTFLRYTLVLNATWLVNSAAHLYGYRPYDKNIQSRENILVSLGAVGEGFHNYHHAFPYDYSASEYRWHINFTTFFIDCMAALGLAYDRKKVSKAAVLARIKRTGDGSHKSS
The experiment can be described thus: SCD assay, rat liver microsomes with [3H]stearoyl CoA (adapted from Talamo and Bloch). The settings on record: second table, same SCD assay. It is filed as biochemical. From the text: The identification of compounds of the invention as SCD inhibitors was readily accomplished using the SCD enzyme and microsomal assay procedure described in Talamo and Bloch (1969) Analytical Biochemistry 29:300-304.
The rat liver microsomes were collected according to the procedure described in Ozols (1990) Methods Enzm, 182:225.
Male Spraque Dawley Rats were placed on regimented fasting protocol for one week to stimulate SCD enzymatic activity. 48-hour periods were alternated between feeding and fasting to induce and down-regulate SCD activity with SCD activity being induced via carbohydrate rich diet prior to liver perfusion and collection.
The rats were anesthetized with Isoflurane inhalation anesthetic, the liver perfused with cold phosphate buffered saline (PBS), weighed, and chilled in cold homogenization buffer (250 mM sucrose, 10 mM Tris, 1 mM EDTA, pH 7.6.
The livers were finely minced and placed in homogenization tube. 40 mL of homogenization buffer was added to the homogenization tube and the liver homogenized and centrifuged in a pre-chilled SLA-600 TC at 800G rotor for 10 min at 4° C.
Following centrifugation, the supernatant was collected and the pellet removed and discarded. This supernatant was then centrifuged at 10,000G for 35 minutes. Following centrifugation, the supernatant was collected and the pellet discarded. The supernatant was further centrifuged in a pre-chilled 45-Ti rotor at 130,000 G (41,000 RPM) for 90 minutes at 4° C.
The supernatant was then aspirated off and the collected microsomal pellet washed in 25 mL of Glycerol PBS (1×PBS 7.4, 20% Glycerol) and resuspended in 4-5 volumes of Glycerol PBS.
The protein concentration of the microsomal preparation was determined by BCA assay (Pierce) and the microsomes were aliquoted and stored at −80° C.
Biobeads were ground to a smaller size in a mortar and pestle and filtered through 300 μM mesh and then resuspended in 3.6% TCA.
SCD was determined in the desaturase assay buffer. This assay buffer contained 0.1 M Tris buffer, pH 7.2, 2 mM NADH, 4.8 mM ATP, 0.5 mM CoA, 4.8 mM MgCl2, and 0.1% BSA.
1 μl of each compound of Formula I was added to an assay plate by a low volume (0.5-10 μL) multichannel pipette. A DMSO control was also prepared. The microsomes were quickly thawed and added to assay buffer so that a concentration of 1-0.1 mg/ml was achieved (0.5-0.05 mg/ml assay final). 50 μl of the microsome suspension in assay buffer was then added into each well in the compound assay plate, the plate was covered, and the microsomes preincubated with the compounds for 30-60 minutes on the orbital shaker, 50-75 rpm, at room temperature.
After preincubation, the reaction was initiated by the addition of 50 μl of substrate solution (20 μM Stearoyl CoA, [3H]Stearoyl CoA, 74nCi) to the preincubated microsomes/compound suspensions in MilliQ (Millipore) H2O. The reaction mixtures were then incubated for 45 minutes on the orbital shaker at 50-75 rpm at room temperature.
The reaction was terminated by the addition of 10 μl of 21% trichloroacetic acid (TCA) to the reaction mixture followed incubation on the orbital shaker for 30 minutes at 50-75 rpm at room temperature followed by centrifugation for 5 minutes at 3700 rpm.
50 μl of a 6% Bio-Bead suspension in H2O was added to the reaction mixture and the assay plate was sealed. The Bio-Bead mixture was incubated on the orbital shaker for 1 to 24 hours, 100-150 rpm at room temperature, and then the mixture was centrifuged at 2000g for 5 minutes to pellet the Bio-Beads.
25 μl of the supernatant was harvested from each well and transferred to a detection plate. 100 μl of OptiPhase SuperMix scinitillation cocktail (containing sufficient NaOH to neutralize the TCA) was added and the solutions mixed by vigorous shaking (300-400 rpm) for 5 minutes at room temperature.
A general note: Microsomes from liver hold many membrane-bound enzymes, among them those of drug oxidation.
`CCCc1ccc(-c2nc3ccc(NCc4cccc(C(F)(F)F)c4)nc3n(CCNC(C)=O)c2=O)cc1` [compound 24, N-(2-(3-oxo-2-(4-propylphenyl)-6-(3-(trifluoromethyl)benzylamino)pyrido[2,3-b]pyrazin-4(3H)-yl)ethyl)acetamide] returned an IC50 of 0.1 µM.
Then `CC(=O)NCCn1c(=O)c(-c2ccc(NC(C)=O)cc2)nc2ccc(NCc3cccc(C(F)(F)F)c3)nc21` [compound 25, N-(4-(4-(2-acetamidoethyl)-3-oxo-6-(3-(trifluoromethyl)benzylamino)-3,4-dihydropyrido[2,3-b]pyrazin-2-yl)phenyl)acetamide], with 4.3 µM.
Then `CC(=O)NCCn1c(=O)c(-c2ccc(C)cc2)nc2ccc(NCc3cccc(C(F)(F)F)c3)nc21` [compound 26, N-(2-(3-oxo-2-p-tolyl-6-(3-(trifluoromethyl)benzylamino)pyrido[2,3-b]pyrazin-4(3H)-yl)ethyl)acetamide], with 0.11 µM; and `CCc1ccc(-c2nc3ccc(NCc4cccc(C(F)(F)F)c4)nc3n(CCNC(C)=O)c2=O)cc1` [compound 27, N-(2-(2-(4-ethylphenyl)-3-oxo-6-(3-(trifluoromethyl)benzylamino)pyrido[2,3-b]pyrazin-4(3H)-yl)ethyl)acetamide], with 0.093 µM; and `CC(=O)NCCn1c(=O)c(-c2ccc(F)cc2)nc2ccc(NCc3cccc(C(F)(F)F)c3)nc21` [compound 28, N-(2-(2-(4-fluorophenyl)-3-oxo-6-(3-(trifluoromethyl)benzylamino)pyrido[2,3-b]pyrazin-4(3H)-yl)ethyl)acetamide], with 0.39 µM.
Then `COc1ccc(-c2nc3ccc(NCc4ccc(Cl)c(Cl)c4)nc3n(CCNC(=O)CN(C)C)c2=O)cc1` [compound 32, N-(2-(6-(3,4-dichlorobenzylamino)-2-(4-methoxyphenyl)-3-oxopyrido[2,3-b]pyrazin-4(3H)-yl)ethyl)-2-(dimethylamino)acetamide], with 12 µM; and `COc1ccc(-c2nc3ccc(NCc4ccc(Cl)c(Cl)c4)nc3n(CCNC(=O)COC(C)=O)c2=O)cc1` [compound 33, 2-(2-(6-(3,4-dichlorobenzylamino)-2-(4-methoxyphenyl)-3-oxopyrido[2,3-b]pyrazin-4(3H)-yl)ethylamino)-2-oxoethyl acetate], with 0.12 µM; and `Cc1nc2ccc(NCc3cccc(C(F)(F)F)c3)nc2n(CCCC(N)=O)c1=O` [compound 36, 4-(2-methyl-3-oxo-6-(3-(trifluoromethyl)benzylamino)pyrido[2,3-b]pyrazin-4(3H)-yl)butanamide], with 1.6 µM.
`COc1ccc(-c2nc3ccc(NCc4ccc(Cl)c(Cl)c4)nc3n(CCNC(=O)CN)c2=O)cc1` [compound 40, 2-amino-N-(2-(6-(3,4-dichlorobenzylamino)-2-(4-methoxyphenyl)-3-oxopyrido[2,3-b]pyrazin-4(3H)-yl)ethyl)acetamide] gave an IC50 of 1.9 µM. The IC50 values of the last two compounds are within 1.5-fold of each other.
Then `COc1ccc(-c2nc3ccc(NCc4ccc(Cl)c(Cl)c4)nc3n(CCNC(=O)CNC(C)=O)c2=O)cc1` [compound 41, 2-acetamido-N-(2-(6-(3,4-dichlorobenzylamino)-2-(4-methoxyphenyl)-3-oxopyrido[2,3-b]pyrazin-4(3H)-yl)ethyl)acetamide], with 1.1 µM; and `COc1ccc(-c2nc3cc(NCc4ccc(Cl)c(Cl)c4)cnc3n(CCNC(C)=O)c2=O)cc1` [compound 42, N-(2-(7-(3,4-dichlorobenzylamino)-2-(4-methoxyphenyl)-3-oxopyrido[2,3-b]pyrazin-4(3H)-yl)ethyl)acetamide], with 2.2 µM.
Then `CC(=O)NCCn1c(=O)c(C)nc2cc(NCc3ccccc3)cnc21` [compound 43, N-(2-(7-(benzylamino)-2-methyl-3-oxopyrido[2,3-b]pyrazin-4(3H)-yl)ethyl)acetamide], with 1.1 µM; and `CC(=O)NCCN1C(=O)C(C)Nc2cc(NC(=O)OCc3ccccc3)cnc21` (stereo not shown) [compound 44, benzyl 4-(2-acetamidoethyl)-2-methyl-3-oxo-1,2,3,4-tetrahydropyrido[2,3-b]pyrazin-7-ylcarbamate], with 0.24 µM.

As a reminder, the IC50 is the concentration that inhibits the measured activity by half. High values mean weaker potency, low ones greater potency.
